Experimental data from ChEMBL document CHEMBL1681646 (Bioorg Med Chem Lett, 2011).

Molecular target: T1, Pancreatic triacylglycerol lipase (Sus scrofa, UniProt P00591)
T1 sequence (P00591 whole entry): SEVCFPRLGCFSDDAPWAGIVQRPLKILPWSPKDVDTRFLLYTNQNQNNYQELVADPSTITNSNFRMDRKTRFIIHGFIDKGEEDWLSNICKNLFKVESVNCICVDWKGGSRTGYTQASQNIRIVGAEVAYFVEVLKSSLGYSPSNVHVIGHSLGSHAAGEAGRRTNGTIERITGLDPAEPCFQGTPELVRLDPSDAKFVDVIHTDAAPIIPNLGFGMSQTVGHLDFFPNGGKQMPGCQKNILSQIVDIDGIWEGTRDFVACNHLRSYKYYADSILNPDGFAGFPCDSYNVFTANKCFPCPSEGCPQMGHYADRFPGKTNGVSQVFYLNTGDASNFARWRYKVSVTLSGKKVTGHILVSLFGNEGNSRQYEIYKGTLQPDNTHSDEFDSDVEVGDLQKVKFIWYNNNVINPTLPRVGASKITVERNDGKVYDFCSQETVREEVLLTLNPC
Experiment: Inhibition of pig pancreatic lipase assessed as p-NPB hydrolysis […]

Structure (SMILES)	IC50 [µM]
COc1cc([C@H]2CC(=O)O[C@H]2C)ccc1O (relative stereo) [CURCULACTONE A]	232
COc1cc(C(=O)O)ccc1O [VANILLIC ACID]	> 250
COc1cc(C=O)ccc1O [VANILLIN]	174

More lines, in order of falling IC50, values ahead:

IC50 [µM]	Structure (SMILES)
12.1	COc1cc([C@@H](O)[C@H](C)O)ccc1O (relative stereo)
9.1	COc1cc([C@H](O)[C@H](C)O)ccc1O (relative stereo)
